This passage reports EC50, IC50 and CC50 results from patent publication US11236087B2, “Highly active pyrazolo-piperidine substituted indole-2-carboxamides active against the hepatitis B virus (HBV)” (AiCuris GmbH & Co. KG, priority 2017, dated 2022).

Some results are limits rather than exact numbers.

The test system of one series is HBV. Description: Determination of HBV DNA from the supernatants of HepAD38 cells (anti-HBV activity). The series is classed as cell-based, hepatitis B virus. The conditions noted are these: Hepatitis B virus, 144 h; HBV DNA in HepAD38 supernatant, day 6, qPCR; read-out: Cell Activity (EC50). The method in brief: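 HepAD38 cells, tetracycline withdrawn to induce HBV, treated with serial half-log compound dilutions; on day 6 HBV DNA purified from filtered supernatant and quantified by real-time PCR against HBV plasmid standards; EC50 from relative copy numbers by non-linear regression, three experiments in triplicate.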
For orientation: Real-time PCR tracks product formation cycle by cycle.

In a further series the target is T1, HBV core protein (UniProt P03146).
T1 construct: fused on or other part: BODIPY-FL maleimide label on the C-terminal Cys150
Description: Biochemical capsid assembly assay (fluorescence quenching). Further details: species or system hepatitis B virus. The conditions noted are these: read-out: Assembly Activity (IC50); BODIPY-FL labelled core protein, 300 μM NaCl, read 6 min after start. The method in brief:
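Purified E. coli-expressed HBV core protein (aa 1-149 plus Cys150), BODIPY-FL maleimide-labelled, at 1.0-2.0 μM in 50 mM HEPES pH 7.5 with 0.5% DMSO was used. Compounds were tested at 8 concentrations (0.5-log dilutions from 100, 31.6 or 10 μM). Assembly was started with NaCl ([…]), and fluorescence quenching was read after 6 min (ex 477/em 525 nm). EC50 was determined by non-linear regression.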

Series [1] in a line: Cell viability assay (AlamarBlue) in HepAD38 cells. The conditions noted are these: human. (In general: Alamar Blue is a resazurin reagent that responds to reducing activity.)

T1 sequence (P03146 whole entry, looked up, the tested form may be a part): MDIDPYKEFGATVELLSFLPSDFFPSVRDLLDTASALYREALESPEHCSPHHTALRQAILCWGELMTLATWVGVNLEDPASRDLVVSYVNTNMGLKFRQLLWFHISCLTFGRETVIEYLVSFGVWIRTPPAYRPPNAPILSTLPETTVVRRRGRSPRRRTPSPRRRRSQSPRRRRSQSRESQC

A word on the EC50: it is the concentration giving half of the maximal effect. Broadly, the IC50 is the concentration at which inhibition is half-maximal. One may read the CC50 as the concentration at which the toxic effect on the cells reaches its halfway point. High values mean better tolerance by the cells, low ones harm at low concentration. On to `O=C(c1cc2ccccc2[nH]1)N1CCc2[nH]nc(C(=O)N3CC[C@H](O)C3)c2C1` [Example 157, (3S)-1-[5-(1H-indole-2-carbonyl)-1H,4H,5H,6H,7H-pyrazolo[4,3-c]pyridine-3-carbonyl]pyrrolidin-3-ol], for which, in the series on HBV, the EC50 lay within 1 to 25 µM. Besides, at HBV core protein, the IC50 was under 100 µM. Also, the half-maximal cytotoxic concentration (CC50) at 6 days in series [1] is over 10 µM.
Turning to `O=C(c1cc2ccccc2[nH]1)N1CCc2[nH]nc(C(=O)N3CCS(=O)(=O)CC3)c2C1` [Example 158, 4-[5-(1H-indole-2-carbonyl)-1H,4H,5H,6H,7H-pyrazolo[4,3-c]pyridine-3-carbonyl]-1lambda6-thiomorpholine-1,1-dione], in the series on HBV, the EC50 fell in the range of 1 to 25 µM. Further, the IC50 at HBV core protein was under 100 µM. In series [1], this compound had a CC50 at 6 days of over 10 µM.
For the compound `O=C(c1cc2ccccc2[nH]1)N1CCc2[nH]nc(C(=O)N3CCSCC3)c2C1` [Example 159, 2-[3-(thiomorpholine-4-carbonyl)-1H,4H,5H,6H,7H-pyrazolo[4,3-c]pyridine-5-carbonyl]-1H-indole], the EC50 in the series with HBV was under 1 µM. The IC50 at HBV core protein was under 5 µM. In series [1], this compound came in with a 50% cytotoxic concentration (CC50) at 6 days of over 10 µM.
The corresponding values for `COC1CCN(C(=O)c2n[nH]c3c2CN(C(=O)c2cc4ccccc4[nH]2)CC3)CC1` [Example 160, 2-[3-(4-methoxypiperidine-1-carbonyl)-1H,4H,5H,6H,7H-pyrazolo[4,3-c]pyridine-5-carbonyl]-1H-indole] are under 1 µM, under 100 µM and over 10 µM.
Take `O=C(c1cc2ccccc2[nH]1)N1CCc2[nH]nc(C(=O)N3CCC[C@@H](O)C3)c2C1` [Example 161, (3R)-1-[5-(1H-indole-2-carbonyl)-1H,4H,5H,6H,7H-pyrazolo[4,3-c]pyridine-3-carbonyl]piperidin-3-ol]: the EC50 in the series on HBV is under 1 µM. At HBV core protein, the IC50 was in the range of 5 to 10 µM. Besides, the CC50 at 6 days in series [1] is over 10 µM.
Take `O=C(c1cc2ccccc2[nH]1)N1CCc2[nH]nc(C(=O)N3CCC[C@H](O)C3)c2C1` [Example 162, (3S)-1-[5-(1H-indole-2-carbonyl)-1H,4H,5H,6H,7H-pyrazolo[4,3-c]pyridine-3-carbonyl]piperidin-3-ol]: the EC50 with HBV fell in the range of 1 to 25 µM. Besides, the half-maximal inhibitory concentration (IC50) at HBV core protein was under 100 µM. This compound had a CC50 at 6 days in series [1] of over 10 µM.
In the case of `CC(=O)N1CCN(C(=O)c2n[nH]c3c2CN(C(=O)c2cc4ccccc4[nH]2)CC3)C(C)(C)C1` [Example 163, 1-{4-[5-(1H-indole-2-carbonyl)-1H,4H,5H,6H,7H-pyrazolo[4,3-c]pyridine-3-carbonyl]-3,3-dimethylpiperazin-1-yl}ethan-1-one], the EC50 in the series with HBV was 1 to 25 µM. Further, the half-inhibitory concentration (IC50) at HBV core protein is under 100 µM. The compound also came in with a CC50 at 6 days in series [1] of over 10 µM.
`CC1(C)CCCCN1C(=O)c1n[nH]c2c1CN(C(=O)c1cc3ccccc3[nH]1)CC2` [Example 165, 2-[3-(2,2-dimethylpiperidine-1-carbonyl)-1H,4H,5H,6H,7H-pyrazolo[4,3-c]pyridine-5-carbonyl]-1H-indole]: the 50% effective concentration (EC50) in the series with HBV was under 1 µM. The IC50 at HBV core protein lay within 5 to 10 µM. In addition, the CC50 at 6 days in series [1] is over 10 µM.
On to `COCC1(N(C)C(=O)c2n[nH]c3c2CN(C(=O)c2cc4ccc(F)cc4[nH]2)CC3)CC1` [Example 166, 5-(6-fluoro-1H-indole-2-carbonyl)-N-[1-(methoxymethyl)cyclopropyl]-N-methyl-1H,4H,5H,6H,7H-pyrazolo[4,3-c]pyridine-3-carboxamide], for which the EC50 in the series with HBV is under 1 µM. In addition, the IC50 at HBV core protein is under 5 µM. This compound also yielded a CC50 at 6 days in series [1] of over 10 µM.
The corresponding values for `O=C(c1cc2ccccc2[nH]1)N1CCc2[nH]nc(C3CCC3)c2C1` [Example 167, 2-{3-cyclobutyl-1H,4H,5H,6H,7H-pyrazolo[4,3-c]pyridine-5-carbonyl}-1H-indole] are under 1 µM, under 5 µM and over 10 µM.
The corresponding values for `CN(C(=O)c1n[nH]c2c1CN(C(=O)c1cc3ccccc3[nH]1)CC2)C1CCCCC1` [Example 170, N-cyclohexyl-5-(1H-indole-2-carbonyl)-N-methyl-1H,4H,5H,6H,7H-pyrazolo[4,3-c]pyridine-3-carboxamide] are 1 to 25 µM, 5 to 10 µM and over 10 µM.
For `CN(CC(=O)OC(C)(C)C)C(=O)c1n[nH]c2c1CN(C(=O)c1cc3ccccc3[nH]1)CC2` [Example 171, tert-butyl 2-{1-[5-(1H-indole-2-carbonyl)-1H,4H,5H,6H,7H-pyrazolo[4,3-c]pyridin-3-yl]-N-methylformamido}acetate], in the series on HBV, the EC50 fell in the range of 1 to 25 µM. Moreover, the IC50 at HBV core protein is under 100 µM. The compound further gave a CC50 at 6 days in series [1] of over 10 µM.
Turning to `CN(CCO)C(=O)c1n[nH]c2c1CN(C(=O)c1cc3c(C(F)F)ccc(F)c3[nH]1)CC2` [Example 172, 5-[4-(difluoromethyl)-7-fluoro-1H-indole-2-carbonyl]-N-(2-hydroxyethyl)-N-methyl-1H,4H,5H,6H,7H-pyrazolo[4,3-c]pyridine-3-carboxamide], in the series on HBV, the EC50 fell in the range of 1 to 25 µM. Moreover, on HBV core protein, the concentration for half-maximal inhibition (IC50) is under 5 µM. This compound also yielded a CC50 at 6 days in series [1] of over 10 µM.
The corresponding values for `CN(C(=O)c1n[nH]c2c1CN(C(=O)c1cc3ccccc3[nH]1)CC2)[C@H]1CC[C@H](O)CC1` [Example 173, 5-(1H-indole-2-carbonyl)-N-methyl-N-[(1r,4r)-4-hydroxycyclohexyl]-1H,4H,5H,6H,7H-pyrazolo[4,3-c]pyridine-3-carboxamide] are 1 to 25 µM, under 100 µM and over 10 µM.
On to `CN(C(=O)c1n[nH]c2c1CN(C(=O)c1cc3ccccc3[nH]1)CC2)[C@H]1CC[C@@H](O)CC1` [Example 174, 5-(1H-indole-2-carbonyl)-N-methyl-N-[(1s,4s)-4-hydroxycyclohexyl]-1H,4H,5H,6H,7H-pyrazolo[4,3-c]pyridine-3-carboxamide], for which the EC50 in the series with HBV is 1 to 25 µM. Moreover, the IC50 on HBV core protein was under 100 µM. Besides, in series [1], the 50% cytotoxic concentration (CC50) at 6 days is over 10 µM.
The corresponding values for `O=C(c1cc2ccccc2[nH]1)N1CCc2[nH]nc(C(=O)N3C[C@@H]4[C@@H](CO)[C@@H]4C3)c2C1` [Example 175, [(±)-3-[5-(1H-indole-2-carbonyl)-1H,4H,5H,6H,7H-pyrazolo[4,3-c]pyridine-3-carbonyl]-3-azabicyclo[3.1.0]hexan-6-yl]methanol] are 1 to 25 µM, 5 to 10 µM and over 10 µM.
For `O=C(c1cc2ccccc2[nH]1)N1CCc2[nH]nc(C(=O)N3C[C@@H]4[C@@H](O)[C@@H]4C3)c2C1` [Example 176, (±)-3-[5-(1H-indole-2-carbonyl)-1H,4H,5H,6H,7H-pyrazolo[4,3-c]pyridine-3-carbonyl]-3-azabicyclo[3.1.0]hexan-6-ol], the EC50 with HBV lay in the range of 1 to 25 µM. Besides, on HBV core protein, the IC50 lay in the range of 5 to 10 µM. In series [1], this compound gave a CC50 at 6 days of over 10 µM.
Taken in the same sequence, the figures for `CN(Cc1ccccc1)C(=O)c1n[nH]c2c1CN(C(=O)c1cc3ccccc3[nH]1)CC2` [Example 178, N-benzyl-5-(1H-indole-2-carbonyl)-N-methyl-1H4H,5H,6H,7H-pyrazolo[4,3-c]pyridine-3-carboxamide] were under 1 µM, under 5 µM and over 10 µM.
`O=C(c1cc2ccccc2[nH]1)N1CCc2[nH]nc(C(=O)N3CCC[C@H]3CO)c2C1` [Example 180, [(2S)-1-[5-(1H-indole-2-carbonyl)-1H,4H,5H,6H,7H-pyrazolo[4,3-c]pyridine-3-carbonyl]pyrrolidin-2-yl]methanol]: in the series on HBV, the EC50 lay in the range of 1 to 25 µM. Also, the IC50 on HBV core protein was under 100 µM. Further, the CC50 at 6 days in series [1] was over 10 µM.
The corresponding values for `O=C(c1cc2ccccc2[nH]1)N1CCc2[nH]nc(C(=O)N3Cc4cn[nH]c4C3)c2C1` [Example 181, 2-(3-{1H,4H,5H,6H-pyrrolo[3,4-c]pyrazole-5-carbonyl}-1H,4H,5H,6H,7H-pyrazolo[4,3-c]pyridine-5-carbonyl)-1H-indole] are 1 to 25 µM, 5 to 10 µM and over 10 µM.
Taken in the same sequence, the figures for `O=C(c1cc2ccccc2[nH]1)N1CCc2[nH]nc(C(=O)N3CCCC34CC4)c2C1` [Example 184, 2-(3-{4-azaspiro[2.4]heptane-4-carbonyl}-1H,4H,5H,6H,7H-pyrazolo[4,3-c]pyridine-5-carbonyl)-1H-indole] were under 1 µM, under 5 µM and over 10 µM.
Taken in the same sequence, the figures for `CCN(C(=O)c1n[nH]c2c1CN(C(=O)c1cc3ccccc3[nH]1)CC2)C1COC1` [Example 185, N-ethyl-5-(1H-indole-2-carbonyl)-N-(oxetan-3-yl)-1H,4H,5H,6H,7H-pyrazolo[4,3-c]pyridine-3-carboxamide] were under 1 µM, 5 to 10 µM and over 10 µM.
On to `CN(C(=O)c1n[nH]c2c1CN(C(=O)c1cc3ccccc3[nH]1)CC2)C1COC1` [Example 188, 5-(1H-indole-2-carbonyl)-N-methyl-N-(oxetan-3-yl)-1H,4H,5H,6H,7H-pyrazolo[4,3-c]pyridine-3-carboxamide], for which the EC50 in the series with HBV is under 1 µM. For the same compound, the IC50 on HBV core protein is 5 to 10 µM. This compound registered a half-maximal cytotoxic concentration (CC50) at 6 days in series [1] of over 10 µM.
Taken in the same sequence, the figures for `CN(C(=O)c1n[nH]c2c1CN(C(=O)c1cc3ccccc3[nH]1)CC2)C1CCOC1` (stereo not drawn) [Example 189, 5-(1H-indole-2-carbonyl)-N-methyl-N-(oxolan-3-yl)-1H4H,5H,6H,7H-pyrazolo[4,3-c]pyridine-3-carboxamide] were 1 to 25 µM, under 100 µM and over 10 µM.
